Measured values from patent publication US20080199503A1, “Pharmaceutical Compositions Preparation of Peptides, Secreted by the Snake Venom Glands, Particularly of Bothrops Jararaca, Vasopeptidases Inhibitors, Evasins, Their Analogues, Derivatives and Products Associated, Thereof, for Development of Applications and Use in Chronic-Degenerative Diseases” (priority 2002, published 2008).
Where two headings read alike, the source gives them in different places. Square brackets hold non-standard residues; d marks the D form. Peptide text beside a SMILES is read from it. pGlu = O=C1CC[C@@H](C(=O)O)N1

Key:
[1] = in vivo; cited from earlier work
[2] = target: C-terminal catalytic site of the Angiotensin I converting enzyme (recombinant ACE) (Homo sapiens, UniProt P12821); assay: Inhibition of the C-terminal catalytic site of recombinant ACE (fluorogenic substrate); format: biochemical
Protocol: (§1) The fractions from purification were submitted to mass spectrometry analysis to conforming the Evasins molar mass after purification. • The enzyme assays for the recombinant ACE inhibition were conducted using the substrate Mca-Ala-Ser-Asp-Lys-DpaOH, at 25° C., in a 50 mM Hepes buffer (pH 6.8), 200 mM NaCl and […] ZnCl2.

[3] = target: N-terminal catalytic site of the Angiotensin I converting enzyme (recombinant ACE) (Homo sapiens, UniProt P12821); assay: Inhibition of the N-terminal catalytic site of recombinant ACE (fluorogenic substrate); format: biochemical
Protocol: as §1

[4] = target: neutral endopeptidase (recombinant NEP) (Homo sapiens, UniProt P08473); assay: Fluorometric assay of recombinant NEP inhibition; format: biochemical
Protocol: The fluorometric assays for the recombinant NEP inhibition were conducted using the substrate Abz-RL-EDDnp in a 50 mM Tris-HCl buffer, pH 7.5, at 37° C. […] The Evasins were pre-incubated with the enzyme before the substrate addition.
The inhibition constants (Ki) values were determined by means of the ratio of the apparent inhibition constant (Ki(app)) and the substrate Km (Salvesen and Nagase, 1990). In: Proteolytic enzymes a practical aproach, Beynon and Bond Eds Oxford University Press, England, 87-88).

[5] = tested on: anesthetized normotensive rats (WKY) blood pressure; assay: Potentiation of the bradykinin hypotensive effect on anesthetized rat blood pressure; format: in vivo; settings: for Bk potentiation(%): hypotension increase of a single bradykinin dose after 200 nmol of potentiator i.v., anesthetized rats; for Duration time: time to reduce the potentiating effect by 50%, 200 nmol/rat i.v., unit not given, minutes
Protocol: The potentiating activity of the bradykinin hypotensive effect was tested in anesthetized rats. Normotensive male rats (WKY) were anesthetized using pentobarbital sodium (Hypnol® Cristália, 50 mg/kg, intraperitoneal) and placed on a controlled-temperature board for maintaining the body temperature between 36.5° C. and 37° C. A polygraph coupled to a physiological transducer was used. The blood pressure ranging values were obtained by integrating the areas limited by the baseline pressure and comparing them to the values obtained from control assays. In in vivo assays, the potentiating activity of Evasins on the hypotensive effect of bradykinin on anesthetized rat blood pressure was observed. Two parameters were determined for comparison of the potentiating effects of bradykinin on the anesthetized rat blood pressure (n=5):
1) Intensity of the potentiating effect of the hypotensive activity of bradykinin on the anesthetized rats blood pressure: This value was defined as the hypotension percentage (%) increase caused by a single dose of bradykinin obtained after the infusion of 200 nmol of potentiator. 2) Potentiating effect length: Time required to reduce the potentiating effect on a single dose of bradykinin by 50%.

[6] = tested on: non anesthetized hypertensive rat blood pressure; assay: Blood pressure of non anesthetized hypertensive rat, i.v. bolus of Evasin; format: in vivo; settings: 70 nmol/100 g of body weight, non-anesthetized hypertensive rats
From the text: (§2) One day before the assay, the animals were subjected to a surgery for cannulation of the femoral artery and vein. The rats were anesthetized with ether and placed in dorsal decubitus on a surgical board. A small skin incision was made, thus separating the musculature for locating the femoral vasculonervous bunch. […] After insertion, the cannulas were tied to the bunch using a surgical line. Next, the cannulas were directed subcutaneously with the aid of a trocater to the scapular waist where they were exteriorized and secured using a suture line. The arterial cannula was used for recording the cardiovascular parameters and the venous cannula for administering the drugs.
(§3) The blood pressure and the heart rate were recorded one day after the femoral artery and vein cannulation. The assay was conducted with non-anesthetized animals with free movement. The rats pulsed arterial pressure (PAP), the mean arterial pressure (MAP) and heart rate (HR) were monitored by a computer, using a data acquisition system (BIOPAC). The data were collected during all the experiments.
Before the drug administration, the rats PBP, MBP and HR were monitored. After the bolus injection of Evasin in a total volume of 0.2 mL (NaCl 0.9% solution), the resulting hypotensive effect and the effect length were monitored. In this assay, standard doses of each peptide (70 nmol/100 g of body weight) were tested (n=4). […] Evasin-5a and the Evasin-7a produced a maximum MBP reduction of −19.17±4.36 mmHg and 13.00±2.78 mmHg respectively.

[7] = tested on: awake hypertensive rat blood pressure; assay: Blood pressure of awake hypertensive rat, free versus cyclodextrin-encapsulated Evasin; format: in vivo; settings: bolus injection, 0.071 nmol/100 g of body weight, awake hypertensive rats
From the text: as §2, with “This example describes the inclusion compound administration effect between the Evasin-5a and hydroxiprolil-[…]-cyclodextrina BPβCD) on the blood pressure of the hypertensive rats. One” for “One”, “line.” for “line. The arterial cannula was used for recording the cardiovascular parameters and the venous cannula for administering the drugs.”
as §3, with “animals” for “rats”
Before the drug administration, the rats PBP, MBP and HR were monitored during 60 minutes. After the bolus injection of Evasin in a total volume of 0.2 mL (NaCl 0.9% solution), the resulting hypotensive effect and the effect length were monitored. […]

[8] = tested on: SHR and TGR(mREN2)L27 hypertensive rats blood pressure; assay: Infusion of Evasin 5a in awake hypertensive rats of different strain; format: in vivo, rat; settings: for decrease of the MAP: infusion 900 μg/100 g corporal weight/hour
From the text: as §2, with “line.” for “line. The arterial cannula was used for recording the cardiovascular parameters and the venous cannula for administering the drugs.”
as §3, with “animals” for “rats”
Before the drug administration, the rats PBP, MBP and HR were monitored during 60 minutes. During and after the infusion of the Evasin 5a, 900 μg/100 g corporal weight/hour in NaCl solution 0.9% (n=6), the cardiovascular parameters were registered. The administration of the evasin-5a in both strains produced the same decreased of the MAP 28±2.7 mmHg and 34±0.9 mmHg in the SHR and TGR (mREN2) L27 respectively. However, it was observed that the relevant difference in time duration effect after the infusion interruption was over 6 hours in the SHR and only 1 hour in the TGRs. These differences indicate important variations of the biochemical mechanisms of the Evasins 5a action with different degree for the renin angiotensin system activation.

[9] = cited from earlier work
[10] = tested on: rostro-ventrolateral medulla of freely moving rats; settings: free (not encapsulated), 25 to 50 ng; cited from earlier work
[11] = recombinant ACE, substrate Mca-Ala-Ser-Asp-Lys-DpaOH, 25° C., pH 6.8, read-out: ECA - Ki, C-terminal
[12] = recombinant ACE, substrate Mca-Ala-Ser-Asp-Lys-DpaOH, 25° C., pH 6.8, read-out: ECA - Ki, N-terminal
[13] = recombinant NEP, substrate Abz-RL-EDDnp, pH 7.5, 37° C., read-out: NEP - Ki

Chain of C-terminal catalytic site of the Angiotensin I converting enzyme (recombinant ACE) (P12821 643-1222 limits assumed, species assumed): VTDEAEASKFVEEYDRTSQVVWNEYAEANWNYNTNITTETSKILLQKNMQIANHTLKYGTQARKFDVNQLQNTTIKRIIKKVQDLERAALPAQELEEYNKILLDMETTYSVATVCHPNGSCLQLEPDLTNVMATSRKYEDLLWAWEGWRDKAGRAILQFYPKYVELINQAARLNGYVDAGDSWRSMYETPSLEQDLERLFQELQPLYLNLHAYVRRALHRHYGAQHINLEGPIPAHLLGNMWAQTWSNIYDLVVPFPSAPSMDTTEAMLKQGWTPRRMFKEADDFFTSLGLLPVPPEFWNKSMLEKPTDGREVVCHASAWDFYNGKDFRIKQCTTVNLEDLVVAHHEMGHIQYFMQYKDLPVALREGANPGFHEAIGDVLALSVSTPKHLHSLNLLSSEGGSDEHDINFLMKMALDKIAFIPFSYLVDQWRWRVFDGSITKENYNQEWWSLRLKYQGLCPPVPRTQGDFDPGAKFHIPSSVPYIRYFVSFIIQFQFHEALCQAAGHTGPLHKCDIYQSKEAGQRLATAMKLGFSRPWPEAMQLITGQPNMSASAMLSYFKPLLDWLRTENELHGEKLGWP
Chain of neutral endopeptidase (recombinant NEP) (P08473 whole entry, species assumed): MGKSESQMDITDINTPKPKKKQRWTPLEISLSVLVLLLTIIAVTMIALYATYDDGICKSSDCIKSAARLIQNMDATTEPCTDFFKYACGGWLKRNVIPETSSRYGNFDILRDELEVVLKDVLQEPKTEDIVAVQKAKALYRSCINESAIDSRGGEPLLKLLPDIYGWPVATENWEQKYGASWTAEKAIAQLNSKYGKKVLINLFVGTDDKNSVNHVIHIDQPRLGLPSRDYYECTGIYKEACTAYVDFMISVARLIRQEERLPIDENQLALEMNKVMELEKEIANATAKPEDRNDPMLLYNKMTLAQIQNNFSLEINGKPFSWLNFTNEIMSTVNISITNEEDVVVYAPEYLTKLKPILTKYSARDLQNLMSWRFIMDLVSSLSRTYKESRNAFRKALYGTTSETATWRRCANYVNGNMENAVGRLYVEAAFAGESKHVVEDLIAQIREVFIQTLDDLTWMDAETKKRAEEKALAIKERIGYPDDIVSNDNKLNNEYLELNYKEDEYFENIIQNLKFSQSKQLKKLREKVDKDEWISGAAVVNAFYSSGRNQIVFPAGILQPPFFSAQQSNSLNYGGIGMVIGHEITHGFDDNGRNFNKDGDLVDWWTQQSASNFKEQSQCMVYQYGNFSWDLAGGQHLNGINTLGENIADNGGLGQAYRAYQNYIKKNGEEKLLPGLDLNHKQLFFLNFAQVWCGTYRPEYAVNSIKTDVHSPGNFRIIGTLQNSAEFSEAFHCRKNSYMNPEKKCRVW
Chain of N-terminal catalytic site of the Angiotensin I converting enzyme (recombinant ACE) (P12821 40-624 limits assumed, species assumed): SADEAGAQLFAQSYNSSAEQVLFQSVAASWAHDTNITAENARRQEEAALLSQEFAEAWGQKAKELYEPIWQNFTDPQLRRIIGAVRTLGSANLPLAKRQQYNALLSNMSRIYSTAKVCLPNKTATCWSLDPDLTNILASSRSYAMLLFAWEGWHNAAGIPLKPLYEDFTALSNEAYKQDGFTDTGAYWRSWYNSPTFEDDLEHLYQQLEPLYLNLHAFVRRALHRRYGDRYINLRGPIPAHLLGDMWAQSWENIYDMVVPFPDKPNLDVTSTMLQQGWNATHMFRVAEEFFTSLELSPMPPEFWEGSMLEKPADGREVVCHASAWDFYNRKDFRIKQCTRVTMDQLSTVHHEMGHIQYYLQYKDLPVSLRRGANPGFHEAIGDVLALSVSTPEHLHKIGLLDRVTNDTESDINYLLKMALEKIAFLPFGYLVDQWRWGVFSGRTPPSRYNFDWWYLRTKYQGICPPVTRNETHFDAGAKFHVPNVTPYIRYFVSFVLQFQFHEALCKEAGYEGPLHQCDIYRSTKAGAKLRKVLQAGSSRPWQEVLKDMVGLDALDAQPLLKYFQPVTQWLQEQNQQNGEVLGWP

| Compound | Ki [2, 11] [µM] | Ki [3, 12] [µM] | Ki [4, 13] [µM] | Bk potentiation(%) [5] [%] | Duration time [5] | hypotensive effect length [6] | reduction in the mean blood pressure (maximum) [6] [mmHg] | also measured |
| --- | --- | --- | --- | --- | --- | --- | --- | --- |
| C[C@H](CS)C(=O)N1CCC[C@H]1C(=O)O [Captopril] | – | – | – | – | – | – | – | drug absorption time when administered alone [1]: 1 h |
| C[C@H](NC(=O)[C@H](Cc1c[nH]c2ccccc12)NC(=O)[C@H](CCCCN)NC(=O)[C@@H]1CCC(=O)N1)C(=O)N1CCC[C@H]1C(=O)O [EVASIN-5a, <EKWAP] ([pGlu]KWAP-OH; C-terminus assumed) | 1.28 | 0.399 | 550 | 102.5 | 10 | 37 min | −19.17±4.36 | effect length [7]: 38 min; maximum hypotensive effect, reduction of MAP [7]: 23±4.2 mmHg; time duration of effect after the infusion interruption ([8]; SHR): over 6 hours; decrease of the MAP ([8]; SHR): 28±2.7 mmHg; decrease of the MAP ([8]; TGR (mREN2) L27): 34±0.9 mmHg; time duration of effect after the infusion interruption ([8]; TGRs): 1 h |
| CC[C@H](C)[C@H](NC(=O)[C@@H]1CCCN1C(=O)CNC(=O)[C@H](CC(=O)O)NC(=O)[C@@H]1CCC(=O)N1)C(=O)N1CCC[C@H]1C(=O)N1CCC[C@H]1C(=O)O [EVASIN-7a, <EDGPIPP] ([pGlu]DGPIPP-OH; C-terminus assumed) | 40 | 70 | 492 | 41.8 | 120 | more than 100 minutes | 13.00±2.78 | – |
| CC[C@H](C)[C@H](NC(=O)[C@H](CCC(N)=O)NC(=O)[C@@H]1CCCN1C(=O)[C@H](CCCNC(=N)N)NC(=O)[C@@H]1CCCN1C(=O)[C@H](Cc1c[nH]c2ccccc12)NC(=O)[C@@H]1CCC(=O)N1)C(=O)N1CCC[C@H]1C(=O)N1CCC[C@H]1C(=O)O [EVASIN-9a, <EWPRPQIPP] | 0.001 | 0.1 | 86 | – | – | 84 min | −27.0±1.50 | antihypertensive activity, intravenously ([9]; administered intravenously): has an antihypertensive activity; antihypertensive activity, orally ([9]; given orally): inactive |
| CC[C@H](C)[C@H](NC(=O)[C@H](CCC(N)=O)NC(=O)[C@@H]1CCCN1C(=O)[C@H](Cc1c[nH]cn1)NC(=O)[C@@H]1CCCN1C(=O)[C@H](Cc1c[nH]c2ccccc12)NC(=O)[C@H](CC(N)=O)NC(=O)[C@@H]1CCC(=O)N1)C(=O)N1CCC[C@H]1C(=O)N1CCC[C@H]1C(=O)O [EVASIN-10c, <ENWPHPQIPP] ([pGlu]NWPHPQIPP-OH; C-terminus assumed) | – | – | – | 195 | 95 | 94 min | −29.5±9.50 | Ki [2]: 0.0005 µM; selectivity for the C-terminal site ([2]; C-terminal versus N-terminal site of ACE): 400 times; Ki [3]: 0.2 µM; Ki [4]: 253 µM |
| Ang-(1-7) (DRVYIHP; Angiotensin 1-7; UniProt P01019 25-31, looked up) [free Ang-(1-7), angiotensinergic peptide, not encapsulated] | – | – | – | – | – | – | – | duration of the increase [10]: approximately 10 min; increase of blood pressure [10]: 15 mmHg |
